From patent US11779572B1, “Methods of treating gastrointestinal stromal tumors” (Deciphera Pharmaceuticals, LLC, priority 2022, dated 2023)

Assays:
CYP3A4 = CYP3A4 (Homo sapiens, UniProt P08684); assay: Contribution of CYP enzymes to metabolism, in vitro data; assay type: in vitro ADME; settings: base model, based on in vitro data
Description: (§1) A PBPK model that included a mechanistic absorption model was developed.

[1] = PBPK model of ripretinib and DP-5439 (Simcyp Simulator)
Description: as §1
Thus, potential auto-induction and auto-inhibition effects were captured within the model.
Single dose (SD) PK data from participants with mild, moderate, and severe HI were used to refine and/or verify the PBPK model. […] Subsequently, the corresponding plasma concentration-time profiles in HI participants were likewise simulated and compared to the observed data.
Predictions of plasma drug concentration-time profiles, clearance and DDIs were performed in the Simcyp Simulator using a population of virtual participants. The default healthy participant population was applied in all simulations involving healthy participants. […] With the exception of demographic data, all parameter values for the healthy participant population were the same as those used for the North European Caucasian population.
For simulations involving cancer participants, the North European Caucasian population was used to accommodate the wider age range observed in this population (19 to 87 years old; median 61 years). Weibull age distribution was applied with alpha and beta values of 5.47 and 66.5 years for male participants and 5.22 and 68.57 years for female participants. Age, height and weight distributions for the simulated virtual participant population were consistent with those from the first-in-human dose-escalation study in cancer patients.
For simulations involving participants with HI, 3 population models have been developed for the Simcyp Simulator and are based on the 3 Child-Pugh categories (CP-A, CP-B and CP-C). […] When reduced hepatic size was also taken into account, overall CYP3A4 expression in CP-A, CP-B and CP-C participants was reduced to 69%, 36% and 20%, respectively, to that of healthy participants.

[2] = Coadministration with pantoprazole (proton-pump inhibitor); assay type: in vivo, human; settings: 40 mg QD pantoprazole with 150 mg QD ripretinib
Description: The effect of a proton-pump inhibitor on the exposure of ripretinib was evaluated.

GIST patients = assay: Example 2 study: treatment-emergent adverse events; assay type: in vivo, human
Description: Grade 3 or 4 treatment-emergent adverse events (TEAEs) in >5% of patients were lipase increased (18%; n=33), anemia (11%; n=20), hypertension (7%; n=13) and abdominal pain (6%; n=11). 13% of patients (n=24) experienced TEAEs leading to study treatment discontinuation, 17% of patients (n=31) experienced TEAEs leading to dose reduction and 49% of patients (n=88) had TEAEs leading to study drug interruption. Table 3 lists TEAEs >10% for GIST patients treated with ≥100 mg of ripretinib daily.

CYP2D6 = CYP2D6 (Homo sapiens, UniProt P10635); assay: Contribution of CYP enzymes to metabolism, in vitro data; assay type: in vitro ADME; settings: base model, based on in vitro data
Description: as §1

[3] = ≥100 mg daily, col c2 (no head; Grade 3 or 4)
[4] = ≥100 mg daily, col c3 (no head; c1+c2)

CYP3A4, sequence (P08684 whole entry): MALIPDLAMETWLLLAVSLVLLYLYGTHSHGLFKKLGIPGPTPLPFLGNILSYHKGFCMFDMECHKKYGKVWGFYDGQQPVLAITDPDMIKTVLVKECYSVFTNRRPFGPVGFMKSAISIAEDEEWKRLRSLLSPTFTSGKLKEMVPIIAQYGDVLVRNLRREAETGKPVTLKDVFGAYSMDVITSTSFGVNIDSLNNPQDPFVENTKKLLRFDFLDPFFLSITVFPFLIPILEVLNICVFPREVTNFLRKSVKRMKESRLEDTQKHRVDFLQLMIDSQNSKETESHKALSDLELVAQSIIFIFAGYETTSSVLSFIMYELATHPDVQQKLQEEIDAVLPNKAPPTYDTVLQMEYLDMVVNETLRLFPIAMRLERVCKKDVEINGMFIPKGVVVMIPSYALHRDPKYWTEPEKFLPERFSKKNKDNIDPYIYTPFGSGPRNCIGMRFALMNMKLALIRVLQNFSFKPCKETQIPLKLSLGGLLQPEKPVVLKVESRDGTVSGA
CYP2D6, sequence (P10635 whole entry): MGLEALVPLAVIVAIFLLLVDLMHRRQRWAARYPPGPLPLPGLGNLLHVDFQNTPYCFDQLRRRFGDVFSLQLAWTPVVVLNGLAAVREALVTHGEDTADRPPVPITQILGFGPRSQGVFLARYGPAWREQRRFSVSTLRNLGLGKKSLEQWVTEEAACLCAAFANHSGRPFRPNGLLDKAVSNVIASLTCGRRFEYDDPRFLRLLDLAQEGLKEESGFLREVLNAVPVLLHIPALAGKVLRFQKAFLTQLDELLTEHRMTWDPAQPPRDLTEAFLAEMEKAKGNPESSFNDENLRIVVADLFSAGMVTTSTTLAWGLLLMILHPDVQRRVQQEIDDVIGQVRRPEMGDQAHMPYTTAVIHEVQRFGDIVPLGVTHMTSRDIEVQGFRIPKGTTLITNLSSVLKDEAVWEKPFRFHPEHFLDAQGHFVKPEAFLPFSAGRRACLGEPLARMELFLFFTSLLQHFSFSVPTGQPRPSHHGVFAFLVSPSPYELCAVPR

## CCn1c(=O)c(-c2cc(NC(=O)Nc3ccccc3)c(F)cc2Br)cc2cnc(NC)cc21 [ripretinib]
CYP3A4
  share of metabolism assigned to CYP3A4: 59%
[1]; 150 mg QD dose
  all predictions relative to observed: ≤ 1.25 fold
[1]; Day 1 and Day 15, except 250-mg QD dose
  predicted mean AUC0-12 and Cmax relative to observed values: ≤ 1.5 fold
[2]
  plasma exposure when ripretinib is coadministered with pantoprazole: No clinically significant differences
GIST patients; GIST patients ≥100 mg daily
  tolerability: generally well tolerated
GIST patients; ≥100 mg daily
  Grade 3 or 4 TEAE abdominal pain: 6%
  Grade 3 or 4 TEAE anemia: 11%
  Grade 3 or 4 TEAE hypertension: 7%
  Grade 3 or 4 TEAE lipase increased: 18%
  patients with TEAEs leading to dose reduction: 17%
  patients with TEAEs leading to study drug interruption: 49%
  patients with TEAEs leading to study treatment discontinuation: 13%
GIST patients; ≥100 mg daily, col c1
  TEAE: Abdominal pain: 33 (18%)
  TEAE: Actinic keratosis: 25 (14%)
  TEAE: Alopecia: 102 (57%)
  TEAE: Amylase increased: 19 (11%)
  TEAE: Anemia: 18 (10%)
  TEAE: Arthralgia: 40 (22%)
  TEAE: Back Pain: 30 (17%)
  TEAE: Blood bilirubin increase: 16 (9%)
  TEAE: Blood creatine phosphokinase increased: 13 (7%)
  TEAE: Constipation: 67 (37%)
  TEAE: Cough: 37 (21%)
  TEAE: Decreased appetite: 60 (34%)
  TEAE: Diarrhea: 50 (28%)
  TEAE: Dizziness: 29 (16%)
  TEAE: Dry skin: 37 (21%)
  TEAE: Dysgeusia: 20 (11%)
  TEAE: Dyspnea: 32 (18%)
  TEAE: Fatigue: 94 (53%)
  TEAE: Headache: 33 (18%)
  TEAE: Hypertension: 25 (14%)
  TEAE: Hypokalaemia: 21 (12%)
  TEAE: Hypomagnesaemia: 18 (10%)
  TEAE: Hypophosphataemia: 17 (10%)
  TEAE: Insomnia: 21 (12%)
  TEAE: Lipase increased: 18 (10%)
  TEAE: Muscle spasms: 47 (26%)
  TEAE: Myalgia: 79 (44%)
  TEAE: Nausea: 77 (43%)
  TEAE: Pain in extremity: 18 (10%)
  TEAE: Palmar-plantar erythrodysaesthesia syndrome: 71 (40%)
  TEAE: Pruritus: 18 (10%)
  TEAE: Rash: 27 (15%)
  TEAE: Rash maculo-papular: 18 (10%)
  TEAE: Seborrhoeic keratosis: 21 (12%)
  TEAE: Skin papilloma: 17 (10%)
  TEAE: Upper respiratory tract infection: 18 (10%)
  TEAE: Urinary tract infection: 16 (9%)
  TEAE: Vision blurred: 17 (10%)
  TEAE: Vomiting: 42 (24%)
  TEAE: Weight decreased: 51 (29%)
GIST patients; [3]
  TEAE: Abdominal pain: 11 (6%)
  TEAE: Actinic keratosis: 0 (0%)
  TEAE: Alopecia: 0 (0%)
  TEAE: Amylase increased: 2 (1%)
  TEAE: Anemia: 20 (11%)
  TEAE: Arthralgia: 0 (0%)
  TEAE: Back Pain: 2 (1%)
  TEAE: Blood bilirubin increase: 5 (3%)
  TEAE: Blood creatine phosphokinase increased: 5 (3%)
  TEAE: Constipation: 0 (0%)
  TEAE: Cough: 0 (0%)
  TEAE: Decreased appetite: 2 (1%)
  TEAE: Diarrhea: 3 (2%)
  TEAE: Dizziness: 0 (0%)
  TEAE: Dry skin: 0 (0%)
  TEAE: Dysgeusia: 0 (0%)
  TEAE: Dyspnea: 4 (2%)
  TEAE: Fatigue: 4 (2%)
  TEAE: Headache: 1 (1%)
  TEAE: Hypertension: 13 (7%)
  TEAE: Hypokalaemia: 5 (3%)
  TEAE: Hypomagnesaemia: 0 (0%)
  TEAE: Hypophosphataemia: 8 (5%)
  TEAE: Insomnia: 0 (0%)
  TEAE: Lipase increased: 33 (18%)
  TEAE: Muscle spasms: 0 (0%)
  TEAE: Myalgia: 0 (0%)
  TEAE: Nausea: 1 (1%)
  TEAE: Pain in extremity: 1 (1%)
  TEAE: Palmar-plantar erythrodysaesthesia syndrome: 1 (1%)
  TEAE: Pruritus: 0 (0%)
  TEAE: Rash: 0 (0%)
  TEAE: Rash maculo-papular: 0 (0%)
  TEAE: Seborrhoeic keratosis: 0 (0%)
  TEAE: Skin papilloma: 0 (0%)
  TEAE: Upper respiratory tract infection: 0 (0%)
  TEAE: Urinary tract infection: 4 (2%)
  TEAE: Vision blurred: 0 (0%)
  TEAE: Vomiting: 2 (1%)
  TEAE: Weight decreased: 1 (1%)
GIST patients; [4]
  TEAE: Abdominal pain: 44 (25%)
  TEAE: Actinic keratosis: 25 (14%)
  TEAE: Alopecia: 102 (57%)
  TEAE: Amylase increased: 21 (12%)
  TEAE: Anemia: 38 (21%)
  TEAE: Arthralgia: 40 (22%)
  TEAE: Back Pain: 32 (18%)
  TEAE: Blood bilirubin increase: 21 (12%)
  TEAE: Blood creatine phosphokinase increased: 18 (10%)
  TEAE: Constipation: 67 (37%)
  TEAE: Cough: 37 (21%)
  TEAE: Decreased appetite: 62 (35%)
  TEAE: Diarrhea: 53 (30%)
  TEAE: Dizziness: 29 (16%)
  TEAE: Dry skin: 37 (21%)
  TEAE: Dysgeusia: 20 (11%)
  TEAE: Dyspnea: 36 (20%)
  TEAE: Fatigue: 98 (55%)
  TEAE: Headache: 34 (19%)
  TEAE: Hypertension: 38 (21%)
  TEAE: Hypokalaemia: 26 (15%)
  TEAE: Hypomagnesaemia: 18 (10%)
  TEAE: Hypophosphataemia: 25 (14%)
  TEAE: Insomnia: 21 (12%)
  TEAE: Lipase increased: 51 (29%)
  TEAE: Muscle spasms: 47 (26%)
  TEAE: Myalgia: 79 (44%)
  TEAE: Nausea: 78 (44%)
  TEAE: Pain in extremity: 19 (11%)
  TEAE: Palmar-plantar erythrodysaesthesia syndrome: 72 (40%)
  TEAE: Pruritus: 18 (10%)
  TEAE: Rash: 27 (15%)
  TEAE: Rash maculo-papular: 18 (10%)
  TEAE: Seborrhoeic keratosis: 21 (12%)
  TEAE: Skin papilloma: 17 (10%)
  TEAE: Upper respiratory tract infection: 18 (10%)
  TEAE: Urinary tract infection: 20 (11%)
  TEAE: Vision blurred: 17 (10%)
  TEAE: Vomiting: 44 (25%)
  TEAE: Weight decreased: 52 (29%)
CYP2D6
  share of metabolism assigned to CYP2D6: 18%
